Columns and labels:
Canis familiaris [1] = experiment: Compound tested for contractility in anesthetized dog when administered intravenously.; format: functional; conditions: Canis lupus familiaris, iv
Felis catus [2] = organism: Felis catus; experiment: Compound tested for contractility in isolated cat papillary muscle at 10 e-4 M.; format: functional
Felis catus [3] = organism: Felis catus; experiment: Response ratio = (percent increase to drug)/(percent increase to 10 E-4 M isoproterenol); format: functional
Canis familiaris [4] = experiment: Percent change in heart rate in anesthetized dog; format: functional, Canis lupus familiaris; also: test concentration or dose not given here
Canis familiaris [5] = experiment: Percent change in mean arterial blood pressure in anesthetized dog; format: functional, Canis lupus familiaris; also: test concentration or dose not given here
Felis catus [6] = organism: Felis catus; experiment: Compound tested for contractility in isolated cat papillary muscle at 10 e-5 M.; format: functional
Felis catus [7] = organism: Felis catus; experiment: Response ratio = (percent increase to drug)/(percent increase to 10 E-5 M isoproterenol); format: functional

In the case of `CCOc1cc(S(C)(=O)=O)ccc1-c1nc2cc[nH]cc-2n1`, the ED50 (Canis familiaris [1]) is reported as 0.07 mg/kg, the Control (Felis catus [2]) is reported as 198% and the Response ratio (Felis catus [3]) is reported as 1.36. For the same compound, the Change (Canis familiaris [4]) was 7%, the Change (Canis familiaris [5]) was -11% and the Control (Felis catus [6]) was 137%. The Response ratio (Felis catus [7]) was 0.51.

Work on `CCCOc1cc(SC)ccc1-c1nc2cc[nH]cc-2n1` yielded an ED50 (Canis familiaris [1]) of 1.2 mg/kg, a Change (Canis familiaris [4]) of -3% and a Change (Canis familiaris [5]) of -62%.

`CSc1ccc(-c2nc3ccc[nH]c-3n2)cc1` gave an ED50 (Canis familiaris [1]) of 1.9 mg/kg, a Change (Canis familiaris [4]) of 27% and a Change (Canis familiaris [5]) of -7%.

Work on `CC[S+]([O-])c1ccc(-c2nc3cc[nH]cc-3n2)c(OC)c1` (stereo not given) yielded a Control (Felis catus [2]) of 170%, a Response ratio (Felis catus [3]) of 1 and a Control (Felis catus [6]) of 136%. For the same compound, the Response ratio (Felis catus [7]) was 0.5.

Compound `Cc1cccc(-c2nc3ccc[nH]c-3n2)c1` has an ED50 (Canis familiaris [1]) of 2.8 mg/kg, a Change (Canis familiaris [4]) of 18% and a Change (Canis familiaris [5]) of -27%.

`CCSc1ccc(-c2nc3cc[nH]cc-3n2)c(OC)c1` was tested, and the Control (Felis catus [2]) was 196%, the Response ratio (Felis catus [3]) was 1.33 and the Control (Felis catus [6]) was 136%. The Response ratio (Felis catus [7]) was 0.5.

`COc1cc(OC)cc(-c2nc3cc[nH]cc-3n2)c1` was tested, and the Control (Felis catus [2]) was 179%, the Response ratio (Felis catus [3]) was 1.1 and the Control (Felis catus [6]) was 115%. It also gave a Response ratio (Felis catus [7]) of 0.21.

`CCCCOc1cc(OC)ccc1-c1nc2cc[nH]cc-2n1` gave a Control (Felis catus [2]) of 140%, a Response ratio (Felis catus [3]) of 0.55 and a Control (Felis catus [6]) of 100%. The Response ratio (Felis catus [7]) was 0.

With `COCCOc1cc(OC)ccc1-c1nc2cc[nH]cc-2n1` the Control (Felis catus [2]) was 116%, the Response ratio (Felis catus [3]) was 0.22 and the Control (Felis catus [6]) was 109%. For the same compound, the Response ratio (Felis catus [7]) was 0.12.

For `N#Cc1ccc(-c2nc3ccncc3[nH]2)cc1`, the Control (Felis catus [2]) was 164%, the Response ratio (Felis catus [3]) was 0.89 and the Control (Felis catus [6]) was 112%. For the same compound, the Response ratio (Felis catus [7]) was 0.16.

Compound `COc1ccc(-c2nc3cc[nH]cc-3n2)c(OCCCSC)c1` has a Control (Felis catus [2]) of 129%, a Response ratio (Felis catus [3]) of 0.41 and a Control (Felis catus [6]) of 118%. It also gave a Response ratio (Felis catus [7]) of 0.25.

Compound `COc1ccc(OC)c(-c2nc3cc[nH]cc-3n2)c1` has a Control (Felis catus [2]) of 169%, a Response ratio (Felis catus [3]) of 0.96 and a Control (Felis catus [6]) of 110%. The Response ratio (Felis catus [7]) was 0.14.

Work on `COc1ccc(-c2nc3ccc[nH]c-3n2)cc1OC` yielded a Control (Felis catus [2]) of 116.5%, a Response ratio (Felis catus [3]) of 0.22 and a Control (Felis catus [6]) of 103%. For the same compound, the Response ratio (Felis catus [7]) was 0.04.

`c1ccc(-c2nc3ccccc3[nH]2)cc1` gave a Control (Felis catus [2]) of 134%, a Response ratio (Felis catus [3]) of 0.47 and a Control (Felis catus [6]) of 105%. For the same compound, the Response ratio (Felis catus [7]) was 0.07.

Work on `Fc1ccc(-c2nc3cc[nH]cc-3n2)cc1` yielded a Control (Felis catus [2]) of 163%, a Response ratio (Felis catus [3]) of 0.87 and a Control (Felis catus [6]) of 105%. For the same compound, the Response ratio (Felis catus [7]) was 0.06.

With `COc1ccc(-c2nc3cc[nH]cc-3n2)c(C)c1` the Control (Felis catus [2]) was 145%, the Response ratio (Felis catus [3]) was 0.63 and the Control (Felis catus [6]) was 119%. For the same compound, the Response ratio (Felis catus [7]) was 0.26.

For `CS(=O)(=O)c1ccc(-c2nc3ccc[nH]c-3n2)cc1`, the ED50 (Canis familiaris [1]) was 18 mg/kg, the Change (Canis familiaris [4]) was 8% and the Change (Canis familiaris [5]) was -2%.

Compound `COc1cc(-c2nc3cc[nH]cc-3n2)cc(OC)c1OC` has a Control (Felis catus [2]) of 151%, a Response ratio (Felis catus [3]) of 0.71 and a Control (Felis catus [6]) of 109%. The Response ratio (Felis catus [7]) was 0.12.

`COc1cc(F)ccc1-c1nc2cc[nH]cc-2n1` was tested, and the Control (Felis catus [2]) was 142%, the Response ratio (Felis catus [3]) was 0.58 and the Control (Felis catus [6]) was 120%. The Response ratio (Felis catus [7]) was 0.28.

`COc1cc(-c2nc3cc[nH]cc-3n2)ccc1[S+](C)[O-]` (stereo not given) showed a Control (Felis catus [2]) of 154%, a Response ratio (Felis catus [3]) of 0.75 and a Control (Felis catus [6]) of 111%. For the same compound, the Response ratio (Felis catus [7]) was 0.15.

In the case of `COc1cc(Br)ccc1-c1nc2cc[nH]cc-2n1`, the Control (Felis catus [2]) is reported as 175%, the Response ratio (Felis catus [3]) is reported as 1.04 and the Control (Felis catus [6]) is reported as 134%. For the same compound, the Response ratio (Felis catus [7]) was 0.47.

`COc1cccc(-c2nc3cc[nH]cc-3n2)c1` was tested, and the Control (Felis catus [2]) was 214%, the Response ratio (Felis catus [3]) was 1.58 and the Control (Felis catus [6]) was 115%. For the same compound, the Response ratio (Felis catus [7]) was 0.21.

Compound `COc1ccccc1-c1nc2cc[nH]cc-2n1` has a Control (Felis catus [2]) of 200%, a Response ratio (Felis catus [3]) of 1.38 and a Control (Felis catus [6]) of 120%. The Response ratio (Felis catus [7]) was 0.28.

`COc1cc(SC)ccc1-c1nc2c[nH]cnc-2n1` was tested, and the Control (Felis catus [2]) was 131%, the Response ratio (Felis catus [3]) was 0.43 and the Control (Felis catus [6]) was 109%. It also gave a Response ratio (Felis catus [7]) of 0.12.

From ChEMBL document CHEMBL1123114, “Structure-activity relationships of arylimidazopyridine cardiotonics: discovery and inotropic activity of 2-[2-methoxy-4-(methylsulfinyl)phenyl]-1H-imidazo[4,5-c]pyridine” (1985)
